Results on four compounds are retold here after patent publication US20240209353A1, “NADK2 INHIBITION IN CANCER AND FIBROTIC DISORDERS” (Memorial Sloan-Kettering Cancer Center, priority 2021, published 2024).

For one data set, the system named is DLD1 and T47D cells. Kind of data set: Cell death quantification (ferroptosis sensitivity). It is filed as cell-based. On the procedure: Cells were seeded in 96-well plates at appropriate cell densities (DLD1: 10000 cells/well, T47D: 15000 cells/well), and incubated overnight at 37° C. containing 5% CO2. Contact-inhibited MEFs were seeded in 24-well plates and incubated as described above. Cell were then subjected to treatments as described in figures. Cells were stained with Hoechst 33342 (0.1 μg/ml) to monitor total cell number, and with Sytox Green (5 nM) to monitor cell death. Culture plates were read by Cytation 5 at indicated time point. Percentage of cell death was calculated as Sytox Green-positive cell number over total cell number.

The subject of data set [1] is DLD1, T47D and HaCaT cells. The data set can be described thus: Western blot: GSH synthesis enzymes, peroxiredoxin oxidation. In kind it is cell-based, human. Conditions: 100 μM MitoPQ, 24 hours; similar extent in cells lacking NADK2 and control cells. The source says:
Protein was then transferred to nitrocellulose membrane for immunoblotting.
Background: In western blotting, separated proteins are transferred to a membrane and probed.

Data set [2] deals with T47D, MCF10A, HaCaT and DLD1 cells. The data set can be described thus: Cell proliferation (cell number fold change). In kind it is cell-based, human. Conditions: supplements at concentrations present in DMEM/F12. How it is done:
FIGS. 3A-3B show cell proliferation measured as cell number fold change (Day 4/Day 0) of T47D cells treated with sgCtrl, sgNADK2-1, or sgNADK2-2, cultured in the indicated medium and supplementation. “LA” is lipoic acid. “Pyr” is pyruvate. “Cu” is cupric sulfate. “Zn” is zinc sulfate. “B12” is vitamin B12. “A” is alanine. “D” is aspartate. “N” is asparagine. “E” is glutamate, and “P” is proline. All supplements were added at the concentrations present in DMEM/F12. […] FIGS. 3D-3F show a Western blot (FIG. 3D), proline abundance measured by GC-MS (FIG. 3E), and cell proliferation (FIG. 3F) of DMEM-cultured T47D cells treated with sgCtrl or sgNADK2-2 and ectopically expressing vector or NADK2 cDNA resistant to sgNADK2-2 mediated CRISPR-Cas9 genome editing. FIGS. 3G-3I show a Western blot (FIG. 3G), proline abundance measured by GC-MS (FIG. 3H), and cell proliferation (FIG. 3I) of DMEM-cultured T47D cells treated with sgCtrl, sgNADK2-1, or sgNADK2-2 and ectopically expressing vector or the POS5 cDNA. All error bars represent mean+SD, n=3. In FIGS. 3A-3C, 3H, and 3I, one-way ANOVA was performed. In FIGS. 3E and 3F, a two-sided t-test was performed with Welch's correction. ** P<0.01; *** P<0.001; n.s., P>0.05.
FIGS. 8D-8H show cell proliferation measured as cell number fold change of the indicated cells with sgCtrl, sgNADK2-1, or sgNADK2-2, cultured in the indicated medium and supplementation. […]

Data set [3] has as its system MEFs. Conditions: proline supplementation to the medium.
Procedure: In brief, confluent MEFs were grown for two days on plates coated with 0.1% gelatin in the presence of 50 μM ascorbate (Sigma, A4034) in the indicated medium. Plates were decellularized with 20 mM ammonium hydroxide/0.5% Triton X-100 for 5 min on a rotating platform. Three times the volume of PBS was added, and ECM was equilibrated overnight at 4° C., followed by four additional PBS washes. To measure collagen abundance, extracted ECM was stained with the Picro Sirius Red Stain Kit (Abcam, ab150681) according to the manufacturer's instructions. The stain was extracted with 0.1 M NaOH, and optical density was measured at 550 nm using a microplate reader. Values were normalized to the packed cell volume of cells grown on a separate plate under the same experimental conditions.
Data set [4] has as its system MEFs. Particulars: 300 μM proline added to culture medium. How it is done:
(§1) Cells were lysed in RIPA lysis buffer (Millipore 20-188) supplemented with protease inhibitors (Thermo Fisher, 78428). Protein concentration was determined by BCA protein assay (Thermo Fisher, 23228), following which equal amount of protein was loaded and separated in polyacrylamide gels. Protein was then transferred to nitrocellulose membrane for immunoblotting.

Another data set has as its system NIH-3T3 cells. Conditions: 0.15 mM proline in culture medium. How it is done:
as §1

Read-outs that look alike come from different tables or passages of the source.

Consider `CCOc1ccccc1-n1c(C(C)N2CCN(C(=O)COc3ccc(Cl)cc3)CC2)nc2ccccc2c1=O` (centres unmarked) [Erastin], for which the “cell death of cells lacking NADK2 upon ferroptosis inducer” value in the data set with DLD1 and T47D cells is recorded as “no increase in cell death”.
For the compound `C[n+]1ccc(-c2cc[n+](CCCCCCCCCC[P+](c3ccccc3)(c3ccccc3)c3ccccc3)cc2)cc1.[I-].[I-].[I-]` [MitoParaquat], the “expression of enzymes involved in GSH synthesis” value in data set [1] was “increased”.
Regarding `COC(=O)c1ccc([C@@H]2c3[nH]c4ccccc4c3C[C@@H](C(=O)OC)N2C(=O)CCl)cc1` [RSL3], the “cell death of cells lacking NADK2 upon ferroptosis inducer” value with DLD1 and T47D cells (vs control cells, 24 or 48 hours) is on record as “no increase in cell death”.
As to `O=C(O)[C@@H]1CCCN1` [proline, L-proline], the “growth of cells lacking NADK2 in DMEM upon supplementation” value in data set [2] is “necessary and sufficient to restore proliferation”. In addition, the “collagen secretion of fibroblasts lacking NADK2 upon supplementation” value with MEFs [3] is listed as “rescued”. For the same compound, in the data set with MEFs [4], the “ATF4 accumulation in cells lacking NADK2” value is given as “blunted” and the “collagen expression in cells lacking NADK2” value is “restored”. Moreover, the “expression of collagen protein in P5CS-deleted cells upon proline addition” value in the data set with NIH-3T3 cells was “restored”.
